Among the data in patent publication US6709675B1, “Thixotropic formulations for filling capsules” (Pierre Fabre Medicament, priority 1998, dated 2004) are solubility and solubility in water values, retold here.

Where a name gives a salt, the structure may show the parent alone.

A short description of one data set: physchem. The conditions noted are these: water.

In the case of `CCN(CC)C(=O)C1(c2ccccc2)CC1CN` (centres unmarked) [milnacipran hydrochloride], the solubility – broadly, how much of the substance goes into solution per volume – in “physchem” stood at 600 mg/mL.
In turn, baquimast had a solubility in water in “Solubility in water” of 0.23 mg/mL.
